Results published in patent US7795290B2 (Genentech, Inc., priority 2004, dated 2010).

Biological target: T1, AKT1 (Homo sapiens, UniProt P31749)
T1 construct: purchased Upstate 14-276
Assay: HTS ATP-utilizing enzyme assay, off-chip mobility-shift (Caliper HTS 250)
Format: biochemical
Conditions: kinase named = inhibitory activity/selectivity; test compound 10 μM; active = greater than three-sigma from mean
Procedure, shortened: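 AKT1 activity was measured by off-chip mobility shift (Caliper HTS 250) as the ratio of peptide substrate to phosphorylated product. Test compound was at 10 μM, with 2.5 h incubation at 20–22° C. EDTA wells served as 100% control and DMSO wells as 0%. Hits were called at three-sigma limits.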

T1 sequence (P31749 whole entry): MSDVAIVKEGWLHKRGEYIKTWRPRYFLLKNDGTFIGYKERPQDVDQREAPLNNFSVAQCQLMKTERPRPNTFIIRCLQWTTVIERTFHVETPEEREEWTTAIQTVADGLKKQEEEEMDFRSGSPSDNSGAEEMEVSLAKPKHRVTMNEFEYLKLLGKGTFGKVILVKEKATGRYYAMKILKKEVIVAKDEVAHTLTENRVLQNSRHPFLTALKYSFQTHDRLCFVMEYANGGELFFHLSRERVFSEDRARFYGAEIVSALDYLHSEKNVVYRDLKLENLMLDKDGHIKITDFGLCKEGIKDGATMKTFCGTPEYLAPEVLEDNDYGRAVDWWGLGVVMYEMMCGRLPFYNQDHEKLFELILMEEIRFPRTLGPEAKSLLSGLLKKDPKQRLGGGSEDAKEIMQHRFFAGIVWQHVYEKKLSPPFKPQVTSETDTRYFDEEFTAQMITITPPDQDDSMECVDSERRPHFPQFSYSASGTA

Activity, AKT1:
CN(C)C1CCN(C(=O)CCN(C(=O)c2cccs2)c2nc(-c3cc4ccccc4o3)cs2)C1 (stereo not shown) [N-(4-(benzofuran-2-yl)thiazol-2-yl)-N-(3-(3-(dimethylamino)pyrrolidin-1-yl)-3-oxopropyl)thiophene-2-carboxamide], CN(C)C1CCN(CCCN(C(=O)c2cccs2)c2nc(-c3cc4ccccc4o3)cs2)C1 (stereo not shown) [N-(4-(benzofuran-2-yl)thiazol-2-yl)-N-(3-(3-(dimethylamino)pyrrolidin-1-yl)propyl)thiophene-2-carboxamide], O=C(CCN(C(=O)c1cccs1)c1nc(-c2cc3ccccc3o2)cs1)N1CCCC(CO)C1 (stereo not shown) [N-(4-(benzofuran-2-yl)thiazol-2-yl)-N-(3-(3-(hydroxymethyl)piperidin-1-yl)-3-oxopropyl)thiophene-2-carboxamide], O=C(c1cccs1)N(CCCN1CCCC(CO)C1)c1nc(-c2cc3ccccc3o2)cs1 (stereo not shown) [N-(4-(benzofuran-2-yl)thiazol-2-yl)-N-(3-(3-(hydroxymethyl)piperidin-1-yl)propyl)thiophene-2-carboxamide], O=C(CCN1CCCCC1)NCCCN(C(=O)c1cccs1)c1nc(-c2cc3ccccc3o2)cs1 [N-(4-(benzofuran-2-yl)thiazol-2-yl)-N-(3-(3-(piperidin-1-yl)propanamido)propyl)thiophene-2-carboxamide], CC(CO)(CO)C(=O)NCCCN(C(=O)c1cccs1)c1nc(-c2cc3ccccc3o2)cs1 [N-(4-(benzofuran-2-yl)thiazol-2-yl)-N-(3-(3-hydroxy-2-(hydroxymethyl)-2-methylpropanamido)propyl)thiophene-2-carboxamide], O=C(CCN(C(=O)c1cccs1)c1nc(-c2cc3ccccc3o2)cs1)N1CCCC(O)C1 (stereo not shown) [N-(4-(benzofuran-2-yl)thiazol-2-yl)-N-(3-(3-hydroxypiperidin-1-yl)-3-oxopropyl)thiophene-2-carboxamide], O=C(c1cccs1)N(CCCN1CCCC(O)C1)c1nc(-c2cc3ccccc3o2)cs1 (stereo not shown) [N-(4-(benzofuran-2-yl)thiazol-2-yl)-N-(3-(3-hydroxypiperidin-1-yl)propyl)thiophene-2-carboxamide], O=C(CCN(C(=O)c1cccs1)c1nc(-c2cc3ccccc3o2)cs1)N1CCC(O)C1 (stereo not shown) [N-(4-(benzofuran-2-yl)thiazol-2-yl)-N-(3-(3-hydroxypyrrolidin-1-yl)-3-oxopropyl)thiophene-2-carboxamide], O=C(c1cccs1)N(CCCN1CCC(O)C1)c1nc(-c2cc3ccccc3o2)cs1 (stereo not shown) [N-(4-(benzofuran-2-yl)thiazol-2-yl)-N-(3-(3-hydroxypyrrolidin-1-yl)propyl)thiophene-2-carboxamide], O=C(CCN1CCOCC1)NCCCN(C(=O)c1cccs1)c1nc(-c2cc3ccccc3o2)cs1 [N-(4-(benzofuran-2-yl)thiazol-2-yl)-N-(3-(3-morpholinopropanamido)propyl)thiophene-2-carboxamide], O=C1CN(CCCN(C(=O)c2cccs2)c2nc(-c3cc4ccccc4o3)cs2)CCN1 [N-(4-(benzofuran-2-yl)thiazol-2-yl)-N-(3-(3-oxopiperazin-1-yl)propyl)thiophene-2-carboxamide], O=C(c1cccs1)N(CCCN1CCC(O)(O)CC1)c1nc(-c2cc3ccccc3o2)cs1 [N-(4-(benzofuran-2-yl)thiazol-2-yl)-N-(3-(4,4-dihydroxypiperidin-1-yl)propyl)thiophene-2-carboxamide], O=C(c1cccs1)N(CCCN1CCN(CCOCCO)CC1)c1nc(-c2cc3ccccc3o2)cs1 [N-(4-(benzofuran-2-yl)thiazol-2-yl)-N-(3-(4-(2-(2-hydroxyethoxy)ethyl)piperazin-1-yl)propyl)thiophene-2-carboxamide], CN(C)C(=O)CN1CCN(CCCN(C(=O)c2cccs2)c2nc(-c3cc4ccccc4o3)cs2)CC1 [N-(4-(benzofuran-2-yl)thiazol-2-yl)-N-(3-(4-(2-(dimethylamino)-2-oxoethyl)piperazin-1-yl)propyl)thiophene-2-carboxamide], CN(C)CCN1CCN(CCCN(C(=O)c2cccs2)c2nc(-c3cc4ccccc4o3)cs2)CC1 [N-(4-(benzofuran-2-yl)thiazol-2-yl)-N-(3-(4-(2-(dimethylamino)ethyl)piperazin-1-yl)propyl)thiophene-2-carboxamide], N#CCCN1CCN(CCCN(C(=O)c2cccs2)c2nc(-c3cc4ccccc4o3)cs2)CC1 [N-(4-(benzofuran-2-yl)thiazol-2-yl)-N-(3-(4-(2-cyanoethyl)piperazin-1-yl)propyl)thiophene-2-carboxamide], O=C(c1cccs1)N(CCCN1CCN(CCO)CC1)c1nc(-c2cc3ccccc3o2)cs1 [N-(4-(benzofuran-2-yl)thiazol-2-yl)-N-(3-(4-(2-hydroxyethyl)piperazin-1-yl)propyl)thiophene-2-carboxamide], O=C(c1cccs1)N(CCCN1CCC(CCO)CC1)c1nc(-c2cc3ccccc3o2)cs1 [N-(4-(benzofuran-2-yl)thiazol-2-yl)-N-(3-(4-(2-hydroxyethyl)piperidin-1-yl)propyl)thiophene-2-carboxamide], COCCN1CCN(CCCN(C(=O)c2cccs2)c2nc(-c3cc4ccccc4o3)cs2)CC1 [N-(4-(benzofuran-2-yl)thiazol-2-yl)-N-(3-(4-(2-methoxyethyl)piperazin-1-yl)propyl)thiophene-2-carboxamide], CCN(CC)C1CCN(CCCN(C(=O)c2cccs2)c2nc(-c3cc4ccccc4o3)cs2)CC1 [N-(4-(benzofuran-2-yl)thiazol-2-yl)-N-(3-(4-(diethylamino)piperidin-1-yl)propyl)thiophene-2-carboxamide], CN(C)CCCC(=O)NCCCN(C(=O)c1cccs1)c1nc(-c2cc3ccccc3o2)cs1 [N-(4-(benzofuran-2-yl)thiazol-2-yl)-N-(3-(4-(dimethylamino)butanamido)propyl)thiophene-2-carboxamide], O=C(c1cccs1)N(CCCN1CCC(CO)CC1)c1nc(-c2cc3ccccc3o2)cs1 [N-(4-(benzofuran-2-yl)thiazol-2-yl)-N-(3-(4-(hydroxymethyl)piperidin-1-yl)propyl)thiophene-2-carboxamide], CS(=O)(=O)N1CCN(CCCN(C(=O)c2cccs2)c2nc(-c3cc4ccccc4o3)cs2)CC1 [N-(4-(benzofuran-2-yl)thiazol-2-yl)-N-(3-(4-(methylsulfonyl)piperazin-1-yl)propyl)thiophene-2-carboxamide], O=C(N1CCOCC1)N1CCN(CCCN(C(=O)c2cccs2)c2nc(-c3cc4ccccc4o3)cs2)CC1 [N-(4-(benzofuran-2-yl)thiazol-2-yl)-N-(3-(4-(morpholine-4-carbonyl)piperazin-1-yl)propyl)thiophene-2-carboxamide], O=C(C1CCCO1)N1CCN(CCCN(C(=O)c2cccs2)c2nc(-c3cc4ccccc4o3)cs2)CC1 (stereo not shown) [N-(4-(benzofuran-2-yl)thiazol-2-yl)-N-(3-(4-(tetrahydrofuran-2-carbonyl)piperazin-1-yl)propyl)thiophene-2-carboxamide], O=C(c1cccs1)N(CCCN1CCC(O)CC1)c1nc(-c2cc3ccccc3o2)cs1 [N-(4-(benzofuran-2-yl)thiazol-2-yl)-N-(3-(4-hydroxypiperidin-1-yl)propyl)thiophene-2-carboxamide], CN1CCN(CCCN(C(=O)c2cccs2)c2nc(-c3cc4ccccc4o3)cs2)CC1 [N-(4-(benzofuran-2-yl)thiazol-2-yl)-N-(3-(4-methylpiperazin-1-yl)propyl)thiophene-2-carboxamide], O=C(c1cccs1)N(CCCN1CCC(N2CCOCC2)CC1)c1nc(-c2cc3ccccc3o2)cs1 [N-(4-(benzofuran-2-yl)thiazol-2-yl)-N-(3-(4-morpholinopiperidin-1-yl)propyl)thiophene-2-carboxamide], CN(CC(O)CO)C(=O)CCN(C(=O)c1cccs1)c1nc(-c2cc3ccccc3o2)cs1 (stereo not shown) [N-(4-(benzofuran-2-yl)thiazol-2-yl)-N-(3-((2,3-dihydroxypropyl)(methyl)amino)-3-oxopropyl)thiophene-2-carboxamide], CN(C)CCN(C)C(=O)CCN(C(=O)c1cccs1)c1nc(-c2cc3ccccc3o2)cs1 [N-(4-(benzofuran-2-yl)thiazol-2-yl)-N-(3-((2-(dimethylamino)ethyl)(methyl)amino)-3-oxopropyl)thiophene-2-carboxamide], CN(CCC#N)C(=O)CCN(C(=O)c1cccs1)c1nc(-c2cc3ccccc3o2)cs1 [N-(4-(benzofuran-2-yl)thiazol-2-yl)-N-(3-((2-cyanoethyl)(methyl)amino)-3-oxopropyl)thiophene-2-carboxamide], CN(CCO)C(=O)CCN(C(=O)c1cccs1)c1nc(-c2cc3ccccc3o2)cs1 [N-(4-(benzofuran-2-yl)thiazol-2-yl)-N-(3-((2-hydroxyethyl)(methyl)amino)-3-oxopropyl)thiophene-2-carboxamide], O=C(CCN(C(=O)c1cccs1)c1nc(-c2cc3ccccc3o2)cs1)N(CCO)CCO [N-(4-(benzofuran-2-yl)thiazol-2-yl)-N-(3-(bis(2-hydroxyethyl)amino)-3-oxopropyl)thiophene-2-carboxamide]
